Experimental data: patent US7282522B2, “Hydroxamic acid derivatives and the method for preparing thereof” (Amorepacific Corporation, priority 2003, dated 2007)

Experiments:
procollagen type I = assay: Effect on collagen biosynthesis (procollagen type I ELISA) in human fibroblasts; format: cell-based; settings: 10^−4M, 24 hours, serum-free medium, relative to control group = 100
Protocol: Human fibroblasts were seeded into 24-well plate at 1×10^5 cells per well and then cultured to 90% of growth.
For each supernatant, procollagen production was measured with procollagen type I ELISA kit.

RARα = biological target: T1, RARα (Homo sapiens, UniProt P10276); assay: RARE-luciferase reporter assay in transfected CV-1 cells (affinity to retinoic acid receptor), RARα; format: cell-based; settings: treated 24 hours at final concentration 10^−4M, control group 1000
T1 construct: expressed in transfected cells; host or cells: CV-1 cells (ATCC)
T1 sequence (P10276 1-462): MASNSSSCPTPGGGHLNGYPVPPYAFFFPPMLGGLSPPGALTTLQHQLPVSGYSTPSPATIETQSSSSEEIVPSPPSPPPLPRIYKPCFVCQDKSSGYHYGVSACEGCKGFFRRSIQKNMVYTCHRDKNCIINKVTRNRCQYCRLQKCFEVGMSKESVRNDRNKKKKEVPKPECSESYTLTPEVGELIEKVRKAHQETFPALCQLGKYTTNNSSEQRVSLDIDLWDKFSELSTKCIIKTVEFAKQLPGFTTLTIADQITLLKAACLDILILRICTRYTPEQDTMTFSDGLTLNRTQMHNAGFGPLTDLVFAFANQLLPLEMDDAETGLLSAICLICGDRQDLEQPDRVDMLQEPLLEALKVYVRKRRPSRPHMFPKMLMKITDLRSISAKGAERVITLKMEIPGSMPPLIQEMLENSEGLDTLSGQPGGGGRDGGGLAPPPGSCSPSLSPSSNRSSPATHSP
Outline: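 CV-1 cells co-transfected with pECE-RARα or pECE-RARγ, RARE-tk-Luc reporter and β-galactosidase vector. Starting 24 h post-transfection, cells were treated for 24 h with compounds at a final 10^−4M; luciferase reporter read-out.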

white guinea pigs = assay: Phototoxicity test (UVA irradiation); settings: for Evaluation (phototoxicity): 1%(w/v) solution, UVA 15 J/cm^2; for Phototoxic index: 50 μl of 1%(w/v) solution, UVA 320~380 nm 15 J/cm^2, observed 24, 48 and 72 hours
Protocol: Test was performed for twenty-five (25) of white guinea pigs whose backs were depilated and fixed. On both sides of the back, six(6) sites of 2 cm×2 cm, three(3) per side were sectioned. Right sites were compared as controls with no irradiation (UV non-irradiation sites) and left sites were irradiated (UV irradiation sites).
30 Minutes later, right sites were shielded with aluminum foil and UVA(320˜380 nm) was irradiated at a distance of about 10 cm therefrom using Waldmann to the final energy of 15 J/cm^2. After 24, 48 and 72 hours elapsed, skin response of guinea pig was observed. […] Evaluation was estimated for each elapsed time, i.e. 24, 48 and 72 hours and maximum scores were selected, to calculate irritation index by the following equation 3. Then, phototoxic index was calculated by the following equation 4. Irritation index=(ΣMaximum of erythema+ΣMaximum of edema)/Number of animals [Equation 3] Phototoxic index=(Irritation index of UV irradiation site)−(Irritation index of UV non-irradiation site) Equation 4]

RARγ = biological target: T2, RARγ (Homo sapiens, UniProt P13631); assay: RARE-luciferase reporter assay in transfected CV-1 cells (affinity to retinoic acid receptor), RARγ; format: cell-based; settings: treated 24 hours at final concentration 10^−4M, control group 5000
T2 construct: expressed in transfected cells; host or cells: CV-1 cells (ATCC)
T2 sequence (P13631 1-454): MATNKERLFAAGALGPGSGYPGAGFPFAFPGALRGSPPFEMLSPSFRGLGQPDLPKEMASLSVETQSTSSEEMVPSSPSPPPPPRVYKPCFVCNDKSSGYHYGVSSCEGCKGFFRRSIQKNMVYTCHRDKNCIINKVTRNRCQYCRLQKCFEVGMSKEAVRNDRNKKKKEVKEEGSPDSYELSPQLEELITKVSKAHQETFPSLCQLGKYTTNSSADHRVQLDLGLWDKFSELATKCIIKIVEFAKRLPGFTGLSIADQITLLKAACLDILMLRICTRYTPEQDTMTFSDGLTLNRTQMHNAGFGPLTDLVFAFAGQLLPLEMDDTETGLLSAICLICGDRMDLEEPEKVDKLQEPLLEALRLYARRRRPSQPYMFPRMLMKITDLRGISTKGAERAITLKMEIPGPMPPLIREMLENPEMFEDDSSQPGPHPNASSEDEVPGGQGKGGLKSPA
Outline: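 CV-1 cells in DMEM with 2.5% FBS, 5,000 per well, transfected 24 h after seeding with 10 ng pECE-RARα, pECE-RARγ, 100 ng RARE-tk-Luc reporter and 100 ng β-galactosidase vector. Read-out is RARE-driven luciferase.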

collagenase = assay: Inhibition of collagenase expression in human fibroblasts (ELISA kit); format: cell-based; settings: 10^−4M, 24 hours, serum-free medium, relative to control group = 100
Outline: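 Serum-starved human fibroblasts were treated for 24 h with 10^−4M test material in serum-free DMEM. Collagenase in the culture fluid was measured by sandwich ELISA read at 405 nm. Values are expressed as % of the untreated control (=100).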

rabbits = settings: rabbit, in vivo
Protocol: Test was performed using fifty-six (56) of healthy male rabbits whose backs were depilated. […] 0.5ml of the test sample solution was applied to the right site of 2.5 cm×2.5 cm region on each of the depilated back. Left site with no sample treated was compared as a control. 24 hours or 72 hours later, skin abnormality such as erythema, crust and edema was observed.
Based on the score of skin response, skin irritation was evaluated according to Draize's P.I.I.(Primary Irritation Index) and compared with retinoic acid.

elastase = assay: Inhibition of elastase expression in human fibroblasts (ELISA kit); format: cell-based; settings: 10^−4M, 24 hours, serum-free medium, relative to control group = 100
Outline: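 Elastase in fibroblast culture fluid quantified by sandwich ELISA: 3 h capture, then chromophore-conjugated secondary antibody, then colour development, stopped with 1M sulfuric acid. Absorbance read at 405 nm. Expression given as % of the untreated control absorbance, with control set to 100.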

| Compound | Collagen biosynthesis (%) (procollagen type I) | Luciferase activity RARα (RARα) | Evaluation (phototoxicity) (white guinea pigs) | Phototoxic index (white guinea pigs) | Luciferase activity RARγ (RARγ) | Collagenase expression (%) (collagenase) | Evaluation (skin irritation) (rabbits) | P.I.I. (Primary Irritation Index) (rabbits) | Elastase expression (%) (elastase) |
| --- | --- | --- | --- | --- | --- | --- | --- | --- | --- |
| N-[4-(N-hydroxycarbamoyl)phenyl]adamantyl carboxyamide [Example 10] | 106 | 11000 | No phototoxicity (lower value than 0.5, criterion value to be estimated as no phototoxicity) | 0 | 12000 | 75 | No irritation | 0.375 | 77 |
| O=C(Cc1ccc(NC(=O)c2ccccc2)cc1)NO [Example 23, N-[4-(N-hydroxycarbamoylmethyl)phenyl]benzamide] | 131 | 13000 | No phototoxicity (lower value than 0.5, criterion value to be estimated as no phototoxicity) | 0 | 13200 | 77 | No irritation | 0.321 | 79 |
